Experimental data as given in patent publication US8865623B2, “Herbicidally active cyclic diones and derivatives thereof, processes for their preparation, compositions, and method of controlling weeds” (Syngenta Limited, priority 2009, dated 2014).

Legend:
Format in all cases: in vivo
Lolium perenne (LOLPE) [1] = assay: Pre-emergence herbicidal activity, glasshouse pot test; settings: evaluated after 13 days; for pest or weed control at 250 g/ha: Lolium perenne, 312 h, Rate 250 g/ha, read-out: Pre-emergence activity LOLPE (100=total damage to plant; 0=no damage to plant)
Procedure, shortened: (§1)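 Sow seeds in standard soil in pots; grow 1 day (pre-emergence) or 8 days (post-emergence) at 24/16° C, 14 h light, 65% humidity. Spray aqueous solution from acetone/water 50:50 + 0.5% Tween 20 formulation. Grow on, watering twice daily; score damage 0–100 after 13 days.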

[2] = test system: Alopecurus myosuroides (ALOMY); assay: as above; settings: evaluated after 13 days; for pest or weed control at 250 g/ha: Alopecurus myosuroides, 312 h, Rate 250 g/ha, read-out: Pre-emergence activity ALOMY (100=total damage to plant; 0=no damage to plant)
Procedure, shortened: as §1

[3] = test system: Echinochloa crus-galli (ECHCG); assay: as above; settings: evaluated after 13 days; for pest or weed control at 250 g/ha: Echinochloa crus-galli, 312 h, Rate 250 g/ha, read-out: Pre-emergence activity ECHCG (100=total damage to plant; 0=no damage to plant)
Procedure, shortened: as §1

Avena fatua (AVEFA) [4] = assay: as above; settings: evaluated after 13 days; for pest or weed control at 250 g/ha: Avena fatua, 312 h, Rate 250 g/ha, read-out: Pre-emergence activity AVEFA (100=total damage to plant; 0=no damage to plant)
Procedure, shortened: as §1

Lolium perenne (LOLPE) [5] = assay: Post-emergence herbicidal activity, glasshouse pot test; settings: rate 250 g/ha, evaluated after 13 days; for pest or weed control at 250 g/ha: Lolium perenne, 312 h, read-out: Post-emergence activity LOLPE (100=total damage to plant; 0=no damage to plant)
Procedure, shortened: as §1

[6] = test system: Alopecurus myosuroides (ALOMY); assay: as above; settings: rate 250 g/ha, evaluated after 13 days; for pest or weed control at 250 g/ha: Alopecurus myosuroides, 312 h, read-out: Post-emergence activity ALOMY (100=total damage to plant; 0=no damage to plant)
Procedure, shortened: as §1

[7] = test system: Echinochloa crus-galli (ECHCG); assay: as above; settings: rate 250 g/ha, evaluated after 13 days; for pest or weed control at 250 g/ha: Echinochloa crus-galli, 312 h, read-out: Post-emergence activity ECHCG (100=total damage to plant; 0=no damage to plant)
Procedure, shortened: as §1

Avena fatua (AVEFA) [8] = assay: as above; settings: rate 250 g/ha, evaluated after 13 days; for pest or weed control at 250 g/ha: Avena fatua, 312 h, read-out: Post-emergence activity AVEFA (100=total damage to plant; 0=no damage to plant)
Procedure, shortened: as §1

Row | Compound | pest or weed control at 250 g/ha (Lolium perenne (LOLPE) [1]; pre-emergence spray) | pest or weed control at 250 g/ha ([2]; pre-emergence spray) | pest or weed control at 250 g/ha ([3]; pre-emergence spray) | pest or weed control at 250 g/ha (Avena fatua (AVEFA) [4]; pre-emergence spray) | pest or weed control at 250 g/ha (Lolium perenne (LOLPE) [5]; glasshouse) | pest or weed control at 250 g/ha ([6]; glasshouse) | pest or weed control at 250 g/ha ([7]; glasshouse) | pest or weed control at 250 g/ha (Avena fatua (AVEFA) [8]; glasshouse) | also measured
1 | CCc1ccc(Oc2ccc(C(F)(F)F)cc2Cl)cc1C1=C(O)[C@H]2CC[C@H](C2)C1=O [Example A-331] | 100% | 90% | 100% | 80% | 80% | 80% | 100% | 80% | –
2 | CCc1ccc(Oc2ccc(C#N)c(Cl)c2)cc1C1=C(O)CC(C)(C)CC1=O [Example A-280] | 70% | 70% | 100% | 40% | 60% | 90% | 100% | 70% | –
3 | CCc1ccc(Oc2ccc(C#N)c(Cl)c2)cc1C1=C(O)C(C)(C)OC(C)(C)C1=O [Example A-75] | 100% | 100% | 100% | 80% | 100% | 100% | 100% | 90% | –
4 | CCc1ccc(Oc2ccc(Cl)cc2F)cc1C1=C(O)CCC(C)(C)C1=O [Example A-112] | 90% | 40% | 60% | 30% | 60% | 20% | 70% | 20% | –
5 | CCc1ccc(Oc2ccc3nc(Cl)cn3n2)cc1C1=C(O)C(C)(C)OC(C)(C)C1=O [Example A-131] | 60% | 30% | 90% | 40% | 70% | 70% | 90% | 80% | –
6 | CCc1ccc(Oc2nc(F)c(F)cc2F)cc1C1=C(O)C(C)(C)OC(C)(C)C1=O [Example A-167] | 30% | 30% | 100% | 10% | 50% | 60% | 100% | 40% | –
7 | CCc1ccc(Oc2ccc(Cl)cc2OC)cc1C1=C(O)C(C)(C)OC(C)(C)C1=O [Example A-181] | 0% | 0% | 0% | 0% | 20% | 0% | 30% | 0% | –
8 | CCc1ccc(Oc2ccc(F)c(Cl)c2)cc1C1=C(O)[C@H]2CC[C@H](C2)C1=O [Example A-246] | 60% | 70% | 100% | 50% | 20% | 50% | 100% | 60% | –
9 | CCC(=O)OC1=C(c2cc(Oc3ccc(C#N)cc3F)ccc2CC)C(=O)C(C)(C)OC1(C)C [Example P-2] | – | – | – | – | – | – | – | – | LOLPE damage to plant (100=total damage to plant; 0=no damage to plant) (Lolium perenne (LOLPE) [1]; pre-emergence, rate 250 g/ha): 100; ALOMY damage to plant (100=total damage to plant; 0=no damage to plant) ([2]; pre-emergence, rate 250 g/ha): 80; ECHCG damage to plant (100=total damage to plant; 0=no damage to plant) ([3]; pre-emergence, rate 250 g/ha): 100; AVEFA damage to plant (100=total damage to plant; 0=no damage to plant) (Avena fatua (AVEFA) [4]; pre-emergence, rate 250 g/ha): 70; LOLPE damage to plant (100=total damage to plant; 0=no damage to plant) (Lolium perenne (LOLPE) [5]): 90; ALOMY damage to plant (100=total damage to plant; 0=no damage to plant) [6]: 90; ECHCG damage to plant (100=total damage to plant; 0=no damage to plant) [7]: 100; AVEFA damage to plant (100=total damage to plant; 0=no damage to plant) (Avena fatua (AVEFA) [8]): 70
10 | CCc1ccc(Oc2ccc(Cl)c(F)c2)cc1C1=C(O)C(C)(C)OC(C)(C)C1=O [Example A-31] | 100% | 90% | 100% | 80% | 100% | 90% | 100% | 80% | –
11 | CCc1ccc(Oc2ccc(F)cc2F)cc1C1=C(O)CCCC1=O [Example A-69] | 30% | 20% | 80% | 0% | 20% | 10% | 60% | 0% | –
12 | CCc1ccc(Oc2ccc(Cl)cc2F)cc1C1=C(O)CC(C)(C)CC1=O [Example A-30] | 70% | 70% | 80% | 50% | 60% | 70% | 100% | 60% | –
13 | CCc1ccc(Oc2cncc(Cl)n2)cc1C1=C(O)C(C)(C)OC(C)(C)C1=O [Example A-102] | 20% | 0% | 10% | 0% | 20% | 10% | 40% | 0% | –
14 | CC1(C)OC(C)(C)C(O)=C(c2cc(Oc3cc(C#N)ccc3F)ccc2C2CC2)C1=O [Example A-358] | – | – | – | – | – | – | – | – | pest or weed control at 250 g/ha (Lolium perenne (LOLPE) [1]; pre-emergence): 90%; pest or weed control at 250 g/ha ([2]; pre-emergence): 60%; pest or weed control at 250 g/ha ([3]; pre-emergence): 90%; pest or weed control at 250 g/ha (Avena fatua (AVEFA) [4]; pre-emergence): 0%; pest or weed control at 250 g/ha (Lolium perenne (LOLPE) [5]): 60%; pest or weed control at 250 g/ha [6]: 90%; pest or weed control at 250 g/ha [7]: 100%; pest or weed control at 250 g/ha (Avena fatua (AVEFA) [8]): 60%
15 | CCc1ccc(Oc2nc3ccccc3s2)cc1C1=C(O)CC2(CCOCC2)CC1=O [Example A-303] | 90% | 80% | 100% | 80% | 100% | 100% | 100% | 100% | –
16 | CCc1ccc(Oc2c(F)ncc(Cl)c2F)cc1C1=C(O)C(C)(C)OC(C)(C)C1=O [Example A-192] | 0% | 0% | 20% | 0% | 10% | 0% | 40% | 10% | –
17 | CCc1ccc(Oc2ccc(Cl)cc2)cc1C1=C(O)[C@H]2CC[C@H](C2)C1=O (single isomer, unassigned) [Example A-88] | 100% | 80% | 100% | 60% | 50% | 70% | 90% | 70% | –
18 | CCc1ccc(Oc2ccc(F)cc2F)cc1C1=C(O)C(C)(C)OC(C)(C)C1=O [Example A-14] | 0% | 0% | 0% | 0% | 40% | 0% | 100% | 10% | –
